≈ marks a conversion by molar mass, not a printed value. Where a SMILES comes first, the peptide text is derived from it. [ ]: non-standard residue; d: D form.
Legend:
MDREC 1238 = format: cell-based, Escherichia coli
Method in brief: (§1)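 Each strain is brought to 2×10^6 CFU in nutrient-sufficient Mueller-Hinton medium and dispensed into wells. Peptide solutions, stepwise diluted 2:1 in the same medium, are then added. The minimal concentration preventing growth gives the MIC.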

P. aeruginosa = assay: microbe, parasite or virus in culture; format: cell-based, Pseudomonas aeruginosa
Method in brief: as §1

E. coli [1] = assay: MIC of antibiotic during combined treatment with antimicrobial peptide; format: cell-based, Escherichia coli; conditions: for Antibiotic MIC, Erythromycin / Antibiotic MIC, Linezolid / Antibiotic MIC, Vancomycin: E. coli
Method in brief: (§2)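 MIC values for mixed peptide plus antibiotic solutions were measured in MH medium.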

MDRAB 12035 = assay: as above; format: cell-based, Acinetobacter baumannii
Method in brief: (§3)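 Antibiotic MIC came from antibiotic dilutions added to bacteria (2×10^6 CFU/ml, MH medium) already combined with peptide serially diluted 2:1 from its own MIC. Swapping the roles of the two agents gave the peptide MIC.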

MDRST 8007 = assay: Minimal inhibitory concentration (MIC), single agent; format: cell-based, Salmonella typhimurium; conditions: agent alone
Method in brief: as §1

S. epidermidis = assay: microbe, parasite or virus in culture; format: cell-based, Staphylococcus epidermidis
Method in brief: as §1

S. aureus = assay: microbe, parasite or virus in culture; format: cell-based, Staphylococcus aureus
Method in brief: as §1

A. baumannii = assay: MIC of antibiotic during combined treatment with antimicrobial peptide; format: cell-based, Acinetobacter baumannii; conditions: for Antibiotic MIC, Erythromycin / Antibiotic MIC, Linezolid / Antibiotic MIC, Vancomycin: A. baumannii
Method in brief: as §2

B. subtilis = assay: microbe, parasite or virus in culture; format: cell-based, Bacillus subtilis
Method in brief: as §1

MDRPA 2003 = format: cell-based, Pseudomonas aeruginosa
Method in brief: as §1

MDRPA 2002 = format: cell-based, Pseudomonas aeruginosa
Method in brief: as §1

MDREC 1229 [2] = assay: MIC of antibiotic during combined treatment with antimicrobial peptide; format: cell-based, Escherichia coli
Method in brief: as §3

MRSA 3114 = format: cell-based, Staphylococcus aureus; conditions: 3114
Method in brief: as §1

MRSA 3126 = format: cell-based, Staphylococcus aureus; conditions: 3126
Method in brief: as §1

E. coli [3] = assay: microbe, parasite or virus in culture; format: cell-based, Escherichia coli; conditions: 16 h
Method in brief: as §1

MDREC 1229 [4] = assay: microbe, parasite or virus in culture; format: cell-based, Escherichia coli
Method in brief: as §1

[5] = peptide treatment concentration 1 μg/ml
[6] = peptide treatment concentration 2 μg/ml
[7] = peptide treatment concentration 4 μg/ml
[8] = peptide treatment concentration 6 μg/ml
[9] = peptide treatment concentration 8 μg/ml
[10] = peptide treatment concentration 16 μg/ml
[11] = peptide treatment concentration 32 μg/ml
[12] = peptide treatment concentration 64 μg/ml
[13] = combined with peptide at 1 μg/ml
[14] = combined with peptide at 2 μg/ml
[15] = combined with peptide at 4 μg/ml
[16] = combined with peptide at 6 μg/ml
[17] = combined with peptide at 8 μg/ml
[18] = combined with peptide at 16 μg/ml
[19] = combined with peptide at 32 μg/ml
[20] = combined with peptide at 64 μg/ml

CC[C@H](C)[C@H](NC(=O)[C@H](CCCCN)NC(=O)[C@H](Cc1c[nH]c2ccccc12)NC(=O)[C@@H](N)CCCNC(=N)N)C(=O)N[C@@H](Cc1ccccc1)C(=O)N[C@@H](CCCCN)C(=O)N[C@@H](CCCCN)C(=O)N[C@H](C(=O)N[C@H](CC(C)C)C(=O)N[C@@H](CCCCN)C(=O)N[C@@H](CC(C)C)C(=O)N[C@@H](CC(C)C)C(=O)N[C@@H](Cc1c[nH]cn1)C(=O)N[C@@H](CCC(=O)O)C(=O)N[C@@H](Cc1ccccc1)C(=O)N[C@@H](CCCCN)C(=O)N[C@@H](CCCCN)C(=O)N[C@@H](Cc1ccccc1)C(N)=O)[C@@H](C)CC [PapMA-23, RWK IFK KIl KLL HEF KKF-NH2] (H-RWKIFKKI[dL]KLLHEFKKF-NH2; N-terminus assumed)
Minimal inhibitory concentration MIC (MDREC 1238): 32 µg/mL (≈ 13.3 µM) | Minimal inhibitory concentration MIC (P. aeruginosa): 64 µg/mL (≈ 26.6 µM) | Synergistic effect of antibacterial activity with existing antibiotics compared with PapMA-1 (E. coli [1]; E. coli and MDREC1229): level similar to that of the PapMA-1 peptide | Antibiotic MIC, Erythromycin (E. coli [1]; erythromycin combined with peptide at 1 μg/ml): 128 µg/mL | Antibiotic MIC, Erythromycin (E. coli [1]; erythromycin combined with peptide at 2 μg/ml): 64 µg/mL | Antibiotic MIC, Erythromycin (E. coli [1]; erythromycin combined with peptide at 4 μg/ml): 16 µg/mL | Antibiotic MIC, Erythromycin (E. coli [1]; erythromycin combined with peptide at 6 μg/ml): 4 µg/mL | Antibiotic MIC, Erythromycin (E. coli [1]; erythromycin combined with peptide at 8 μg/ml): 2 µg/mL | Antibiotic MIC, Erythromycin (E. coli [1]; erythromycin combined with peptide at 16 μg/ml): 0.5 µg/mL | Antibiotic MIC, Erythromycin (E. coli [1]; erythromycin combined with peptide at 32 μg/ml): 0 µg/mL | Antibiotic MIC, Erythromycin (E. coli [1]; erythromycin combined with peptide at 64 μg/ml): 0 µg/mL | Antibiotic MIC, Linezolid (E. coli [1]; linezolid combined with peptide at 1 μg/ml): >128 µg/mL | Antibiotic MIC, Linezolid (E. coli [1]; linezolid combined with peptide at 2 μg/ml): 128 µg/mL | Antibiotic MIC, Linezolid (E. coli [1]; linezolid combined with peptide at 4 μg/ml): 64 µg/mL | Antibiotic MIC, Linezolid (E. coli [1]; linezolid combined with peptide at 6 μg/ml): 32 µg/mL | Antibiotic MIC, Linezolid (E. coli [1]; linezolid combined with peptide at 8 μg/ml): 16 µg/mL | Antibiotic MIC, Linezolid (E. coli [1]; linezolid combined with peptide at 16 μg/ml): 16 µg/mL | Antibiotic MIC, Linezolid (E. coli [1]; linezolid combined with peptide at 32 μg/ml): 0 µg/mL | Antibiotic MIC, Linezolid (E. coli [1]; linezolid combined with peptide at 64 μg/ml): 0 µg/mL | Antibiotic MIC, Vancomycin (E. coli [1]; vancomycin combined with peptide at 1 μg/ml): >128 µg/mL | Antibiotic MIC, Vancomycin (E. coli [1]; vancomycin combined with peptide at 2 μg/ml): >128 µg/mL | Antibiotic MIC, Vancomycin (E. coli [1]; vancomycin combined with peptide at 4 μg/ml): >128 µg/mL | Antibiotic MIC, Vancomycin (E. coli [1]; vancomycin combined with peptide at 6 μg/ml): 64 µg/mL | Antibiotic MIC, Vancomycin (E. coli [1]; vancomycin combined with peptide at 8 μg/ml): 16 µg/mL | Antibiotic MIC, Vancomycin (E. coli [1]; vancomycin combined with peptide at 16 μg/ml): 8 µg/mL | Antibiotic MIC, Vancomycin (E. coli [1]; vancomycin combined with peptide at 32 μg/ml): 0 µg/mL | Antibiotic MIC, Vancomycin (E. coli [1]; vancomycin combined with peptide at 64 μg/ml): 0 µg/mL | Erythromycin MIC during combined treatment with peptide (MDRAB 12035; [5]): 32 µg/mL | Linezolid MIC during combined treatment with peptide (MDRAB 12035; [5]): >128 µg/mL | Vancomycin MIC during combined treatment with peptide (MDRAB 12035; [5]): >128 µg/mL | Erythromycin MIC during combined treatment with peptide (MDRAB 12035; [6]): 32 µg/mL | Linezolid MIC during combined treatment with peptide (MDRAB 12035; [6]): >128 µg/mL | Vancomycin MIC during combined treatment with peptide (MDRAB 12035; [6]): >128 µg/mL | Erythromycin MIC during combined treatment with peptide (MDRAB 12035; [7]): 16 µg/mL | Linezolid MIC during combined treatment with peptide (MDRAB 12035; [7]): 64 µg/mL | Vancomycin MIC during combined treatment with peptide (MDRAB 12035; [7]): 128 µg/mL | Erythromycin MIC during combined treatment with peptide (MDRAB 12035; [8]): 4 µg/mL | Linezolid MIC during combined treatment with peptide (MDRAB 12035; [8]): 32 µg/mL | Vancomycin MIC during combined treatment with peptide (MDRAB 12035; [8]): 32 µg/mL | Erythromycin MIC during combined treatment with peptide (MDRAB 12035; [9]): 1 µg/mL | Linezolid MIC during combined treatment with peptide (MDRAB 12035; [9]): 16 µg/mL | Vancomycin MIC during combined treatment with peptide (MDRAB 12035; [9]): 16 µg/mL | Erythromycin MIC during combined treatment with peptide (MDRAB 12035; [10]): 0.25 µg/mL | Linezolid MIC during combined treatment with peptide (MDRAB 12035; [10]): 4 µg/mL | Vancomycin MIC during combined treatment with peptide (MDRAB 12035; [10]): 8 µg/mL | Erythromycin MIC during combined treatment with peptide (MDRAB 12035; [11]): 0 µg/mL | Linezolid MIC during combined treatment with peptide (MDRAB 12035; [11]): 0 µg/mL | Vancomycin MIC during combined treatment with peptide (MDRAB 12035; [11]): 0 µg/mL | Erythromycin MIC during combined treatment with peptide (MDRAB 12035; [12]): 0 µg/mL | Linezolid MIC during combined treatment with peptide (MDRAB 12035; [12]): 0 µg/mL | Vancomycin MIC during combined treatment with peptide (MDRAB 12035; [12]): 0 µg/mL | Minimal inhibitory concentration MIC (MDRST 8007): 64 µg/mL (≈ 26.6 µM) | Minimal inhibitory concentration MIC (S. epidermidis): >128 µg/mL | Minimal inhibitory concentration MIC (S. aureus): >128 µg/mL | Synergistic effect of antibacterial activity with existing antibiotics compared with PapMA-1 (A. baumannii; A. baumannii and MDRAB 12035): level similar to that of PapMA-1 peptide | Antibiotic MIC, Erythromycin (A. baumannii; [13]): 32 µg/mL | Antibiotic MIC, Linezolid (A. baumannii; [13]): >128 µg/mL | Antibiotic MIC, Vancomycin (A. baumannii; [13]): >128 µg/mL | Antibiotic MIC, Erythromycin (A. baumannii; [14]): 32 µg/mL | Antibiotic MIC, Linezolid (A. baumannii; [14]): >128 µg/mL | Antibiotic MIC, Vancomycin (A. baumannii; [14]): >128 µg/mL | Antibiotic MIC, Erythromycin (A. baumannii; [15]): 8 µg/mL | Antibiotic MIC, Linezolid (A. baumannii; [15]): 64 µg/mL | Antibiotic MIC, Vancomycin (A. baumannii; [15]): 64 µg/mL | Antibiotic MIC, Erythromycin (A. baumannii; [16]): 4 µg/mL | Antibiotic MIC, Linezolid (A. baumannii; [16]): 16 µg/mL | Antibiotic MIC, Vancomycin (A. baumannii; [16]): 32 µg/mL | Antibiotic MIC, Erythromycin (A. baumannii; [17]): 0.5 µg/mL | Antibiotic MIC, Linezolid (A. baumannii; [17]): 4 µg/mL | Antibiotic MIC, Vancomycin (A. baumannii; [17]): 8 µg/mL | Antibiotic MIC, Erythromycin (A. baumannii; [18]): 0.25 µg/mL | Antibiotic MIC, Linezolid (A. baumannii; [18]): 2 µg/mL | Antibiotic MIC, Vancomycin (A. baumannii; [18]): 4 µg/mL | Antibiotic MIC, Erythromycin (A. baumannii; [19]): 0 µg/mL | Antibiotic MIC, Linezolid (A. baumannii; [19]): 0 µg/mL | Antibiotic MIC, Vancomycin (A. baumannii; [19]): 0 µg/mL | Antibiotic MIC, Erythromycin (A. baumannii; [20]): 0 µg/mL | Antibiotic MIC, Linezolid (A. baumannii; [20]): 0 µg/mL | Antibiotic MIC, Vancomycin (A. baumannii; [20]): 0 µg/mL | Minimal inhibitory concentration MIC (B. subtilis): >128 µg/mL | Minimal inhibitory concentration MIC (MDRPA 2003): 64 µg/mL (≈ 26.6 µM) | Minimal inhibitory concentration MIC (MDRPA 2002): 64 µg/mL (≈ 26.6 µM) | Antibiotic MIC, Erythromycin (MDREC 1229 [2]; [5]): 128 µg/mL | Antibiotic MIC, Linezolid (MDREC 1229 [2]; [5]): >128 µg/mL | Antibiotic MIC, Vancomycin (MDREC 1229 [2]; [5]): >128 µg/mL | Antibiotic MIC, Erythromycin (MDREC 1229 [2]; [6]): 64 µg/mL | Antibiotic MIC, Linezolid (MDREC 1229 [2]; [6]): 128 µg/mL | Antibiotic MIC, Vancomycin (MDREC 1229 [2]; [6]): >128 µg/mL | Antibiotic MIC, Erythromycin (MDREC 1229 [2]; [7]): 32 µg/mL | Antibiotic MIC, Linezolid (MDREC 1229 [2]; [7]): 64 µg/mL | Antibiotic MIC, Vancomycin (MDREC 1229 [2]; [7]): >128 µg/mL | Antibiotic MIC, Erythromycin (MDREC 1229 [2]; [8]): 8 µg/mL | Antibiotic MIC, Linezolid (MDREC 1229 [2]; [8]): 32 µg/mL | Antibiotic MIC, Vancomycin (MDREC 1229 [2]; [8]): 128 µg/mL | Antibiotic MIC, Erythromycin (MDREC 1229 [2]; [9]): 4 µg/mL | Antibiotic MIC, Linezolid (MDREC 1229 [2]; [9]): 32 µg/mL | Antibiotic MIC, Vancomycin (MDREC 1229 [2]; [9]): 32 µg/mL | Antibiotic MIC, Erythromycin (MDREC 1229 [2]; [10]): 1 µg/mL | Antibiotic MIC, Linezolid (MDREC 1229 [2]; [10]): 16 µg/mL | Antibiotic MIC, Vancomycin (MDREC 1229 [2]; [10]): 16 µg/mL | Antibiotic MIC, Erythromycin (MDREC 1229 [2]; [11]): 0 µg/mL | Antibiotic MIC, Linezolid (MDREC 1229 [2]; [11]): 0 µg/mL | Antibiotic MIC, Vancomycin (MDREC 1229 [2]; [11]): 0 µg/mL | Antibiotic MIC, Erythromycin (MDREC 1229 [2]; [12]): 0 µg/mL | Antibiotic MIC, Linezolid (MDREC 1229 [2]; [12]): 0 µg/mL | Antibiotic MIC, Vancomycin (MDREC 1229 [2]; [12]): 0 µg/mL | Minimal inhibitory concentration MIC (MRSA 3114): >128 µg/mL | Minimal inhibitory concentration MIC (MRSA 3126): >128 µg/mL | Minimal inhibitory concentration MIC (E. coli [3]): 32 µg/mL (≈ 13.3 µM) | Minimal inhibitory concentration MIC (MDREC 1229 [4]): 32 µg/mL (≈ 13.3 µM) | Peptide MIC, peptide alone (MDREC 1229 [4]): 32 µg/mL

Reference: US11214594B2, “Antimicrobial peptide having synergistic antibacterial effect with antibiotics on multidrug resistant bacteria, and use thereof” (priority 2016, dated 2022)
